The test system of data set [1] is Vero E6/TMPRSS2 cells. Format: cell-based. The protocol: A solution of each CyD derivative, prepared in DMEM supplemented with 10% FBS and 1 mg/mL G-418, was filtered and sterilized using a DISMIC-25cs 0.45 µm filter. […] After 24 h, the cells were treated with CyD derivatives and further incubated for 72 h in a humidified incubator at 37°C with 5% CO₂. Cytotoxicity was assessed under a microscope.

The test system of data set [2] is JEV Beijing-1 variant (procoagulant activity). Format: biochemical, Japanese encephalitis virus.
A further data set is described as follows: in vitro. The conditions noted are these: African green monkey.
The test system of another data set is red blood cells. The conditions noted are these: cited from earlier work.
The target of data set [3] is SARS-CoV-2 spike protein-ACE2 binding (UniProt P0DTC2+Q9BYF1).
Another data set concerns Vero cells. Format: cell-based. The following applies: CCK-8, tested up to 100 mM.
For data set [4], the system named is Vero E6/TMPRSS2 cells. The conditions noted are these: CCK-8, tested up to 100 mM.
The next data set deals with Pichinde virus. The following applies: guinea pigs infected with Pichinde virus, treated 6-7 days after infection; cited from earlier work.
The mark [5] stands for this setting: Vero E6/TMPRSS2 cells, 72 h, microscope, twofold dilutions with 10 mM as highest concentration.

Like-named read-outs stand apart in the source and are kept apart here.

SARS-CoV-2 spike protein-ACE2 binding, sequence (Q9BYF1 18-740, one chain of several): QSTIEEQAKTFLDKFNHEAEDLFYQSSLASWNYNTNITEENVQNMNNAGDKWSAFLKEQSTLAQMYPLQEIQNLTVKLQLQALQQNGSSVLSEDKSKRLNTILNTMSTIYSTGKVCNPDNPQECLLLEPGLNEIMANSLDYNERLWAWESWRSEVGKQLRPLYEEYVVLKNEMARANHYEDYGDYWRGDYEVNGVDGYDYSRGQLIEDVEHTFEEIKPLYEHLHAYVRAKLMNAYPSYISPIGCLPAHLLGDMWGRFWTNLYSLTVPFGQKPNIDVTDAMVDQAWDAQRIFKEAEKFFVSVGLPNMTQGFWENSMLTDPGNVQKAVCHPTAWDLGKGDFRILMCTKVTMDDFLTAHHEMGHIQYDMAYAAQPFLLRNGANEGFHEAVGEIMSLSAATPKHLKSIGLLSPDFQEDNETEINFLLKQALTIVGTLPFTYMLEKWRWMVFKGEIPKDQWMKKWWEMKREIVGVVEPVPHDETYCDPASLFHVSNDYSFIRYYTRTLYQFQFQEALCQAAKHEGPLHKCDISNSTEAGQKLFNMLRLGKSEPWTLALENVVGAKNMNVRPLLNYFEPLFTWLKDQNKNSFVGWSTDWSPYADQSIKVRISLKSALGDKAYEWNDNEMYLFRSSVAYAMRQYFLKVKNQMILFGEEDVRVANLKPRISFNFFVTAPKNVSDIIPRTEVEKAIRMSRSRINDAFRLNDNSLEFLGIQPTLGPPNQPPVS

In the data set on Vero E6/TMPRSS2 cells [1] (setting [5]), `COC[C@H]1O[C@@H]2O[C@H]3[C@H](O)[C@@H](OC)[C@@H](O[C@H]4[C@H](O)[C@@H](OC)[C@@H](O[C@H]5[C@H](O)[C@@H](OC)[C@@H](O[C@H]6[C@H](O)[C@@H](OC)[C@@H](O[C@H]7[C@H](O)[C@@H](OC)[C@@H](O[C@H]1[C@H](O)[C@H]2OC)O[C@@H]7COC)O[C@@H]6COC)O[C@@H]5COC)O[C@@H]4COC)O[C@@H]3COC` [DM-α-CyD] returned a Highest non-toxic concentration of 2.50 mM. The molecule `COC[C@H]1O[C@@H]2O[C@H]3[C@H](O)[C@@H](OC)[C@@H](O[C@H]4[C@H](O)[C@@H](OC)[C@@H](O[C@H]5[C@H](O)[C@@H](OC)[C@@H](O[C@H]6[C@H](O)[C@@H](OC)[C@@H](O[C@H]7[C@H](O)[C@@H](OC)[C@@H](O[C@H]8[C@H](O)[C@@H](OC)[C@@H](O[C@H]1[C@H](O)[C@H]2OC)O[C@@H]8COC)O[C@@H]7COC)O[C@@H]6COC)O[C@@H]5COC)O[C@@H]4COC)O[C@@H]3COC` [DM-β-CyD, 2,6-di-O-methyl-β-cyclodextrin] displayed a Highest non-toxic concentration in the data set with Vero E6/TMPRSS2 cells [1] (African green monkey) of 5.00 mM. In data set [2] (5 mM, 37°C), the “effect on clotting time (JEV procoagulant activity)” value is “had no effect”. The molecule further gave a CC50 in “in vitro” of 5.74 mM. Moreover, the “concentration causing 50% hemolysis” value with red blood cells is 1000 µM. For the molecule `COC[C@H]1O[C@@H]2O[C@H]3[C@H](OC(C)=O)[C@@H](OC)[C@@H](O[C@H]4[C@H](OC(C)=O)[C@@H](OC)[C@@H](O[C@H]5[C@H](OC(C)=O)[C@@H](OC)[C@@H](O[C@H]6[C@H](OC(C)=O)[C@@H](OC)[C@@H](O[C@H]7[C@H](OC(C)=O)[C@@H](OC)[C@@H](O[C@H]8[C@H](OC(C)=O)[C@@H](OC)[C@@H](O[C@H]1[C@H](OC(C)=O)[C@H]2OC)O[C@@H]8COC)O[C@@H]7COC)O[C@@H]6COC)O[C@@H]5COC)O[C@@H]4COC)O[C@@H]3COC` [DMA-β-CyD], in data set [3], the “effect on spike protein-ACE2 binding” value is given as “did not interfere with this interaction”. Besides, the “effect on clotting time (JEV procoagulant activity)” value in data set [2] (10 mM, 28°C) is recorded as “clotting time remained similar to that of the control”; in data set [2] (10 mM, 37°C), “prolonged”. Also, the CC50 with Vero cells and with Vero E6/TMPRSS2 cells [4] was not below 100 mM throughout. Also, the hemolysis result in the data set with red blood cells (at 100 mM) was “did not induce hemolysis”. `COC[C@H]1O[C@@H]2O[C@H]3[C@H](OC)[C@@H](OC)[C@@H](O[C@H]4[C@H](OC)[C@@H](OC)[C@@H](O[C@H]5[C@H](OC)[C@@H](OC)[C@@H](O[C@H]6[C@H](OC)[C@@H](OC)[C@@H](O[C@H]7[C@H](OC)[C@@H](OC)[C@@H](O[C@H]8[C@H](OC)[C@@H](OC)[C@@H](O[C@H]1[C@H](OC)[C@H]2OC)O[C@@H]8COC)O[C@@H]7COC)O[C@@H]6COC)O[C@@H]5COC)O[C@@H]4COC)O[C@@H]3COC` [TM-β-CyD]: the Highest non-toxic concentration in the data set with Vero E6/TMPRSS2 cells [1] (setting [5]) came out at 1.25 mM.

As to `OC[C@H]1O[C@@H]2O[C@H]3[C@H](O)[C@@H](O)[C@@H](O[C@H]4[C@H](O)[C@@H](O)[C@@H](O[C@H]5[C@H](O)[C@@H](O)[C@@H](O[C@H]6[C@H](O)[C@@H](O)[C@@H](O[C@H]7[C@H](O)[C@@H](O)[C@@H](O[C@H]1[C@H](O)[C@H]2O)O[C@@H]7CO)O[C@@H]6CO)O[C@@H]5CO)O[C@@H]4CO)O[C@@H]3CO` [α-CyD], the Highest non-toxic concentration in the data set on Vero E6/TMPRSS2 cells [1] (setting [5]) is listed as 5.00 mM. Still for that read-out and setting: in the case of `OC[C@H]1O[C@@H]2O[C@H]3[C@H](O)[C@@H](O)[C@@H](O[C@H]4[C@H](O)[C@@H](O)[C@@H](O[C@H]5[C@H](O)[C@@H](O)[C@@H](O[C@H]6[C@H](O)[C@@H](O)[C@@H](O[C@H]7[C@H](O)[C@@H](O)[C@@H](O[C@H]8[C@H](O)[C@@H](O)[C@@H](O[C@H]1[C@H](O)[C@H]2O)O[C@@H]8CO)O[C@@H]7CO)O[C@@H]6CO)O[C@@H]5CO)O[C@@H]4CO)O[C@@H]3CO` [β-CyD] it was not below 10.0 mM; in that of `OC[C@H]1O[C@@H]2O[C@H]3[C@H](O)[C@@H](O)[C@@H](O[C@H]4[C@H](O)[C@@H](O)[C@@H](O[C@H]5[C@H](O)[C@@H](O)[C@@H](O[C@H]6[C@H](O)[C@@H](O)[C@@H](O[C@H]7[C@H](O)[C@@H](O)[C@@H](O[C@H]8[C@H](O)[C@@H](O)[C@@H](O[C@H]9[C@H](O)[C@@H](O)[C@@H](O[C@H]1[C@H](O)[C@H]2O)O[C@@H]9CO)O[C@@H]8CO)O[C@@H]7CO)O[C@@H]6CO)O[C@@H]5CO)O[C@@H]4CO)O[C@@H]3CO` [γ-CyD], 2.50 mM. hydroxypropyl-α-cyclodextrin [HP-α-CyD]: the Highest non-toxic concentration in the data set with Vero E6/TMPRSS2 cells [1] (setting [5]) was not below 10.0 mM.

B1: bavituximab (antibody, chains of the INN, looked up, V domains shown)
VH: EVQLQQSGPELEKPGASVKLSCKASGYSFTGYNMNWVKQSHGKSLEWIGHIDPYYGDTSYNQKFRGKATLTVDKSSSTAYMQLKSLTSEDSAVYYCVKGGYYGHWYFDVWGAGTTVTVSS
VL: DIQMTQSPSSLSASLGERVSLTCRASQDIGSSLNWLQQGPDGTIKRLIYATSSLDSGVPKRFSGSRSGSDYSLTISSLESEDFVDYYCLQYVSSPPTFGAGTKLELK
For B1, the animals survived in the data set with Pichinde virus is 50%.

Values taken from PMC12724303 (Journal of Virology, 2025).
